Consider 12 compounds from ChEMBL document CHEMBL2010751, “Synthesis of a novel suppressor of beta-cell apoptosis via diversity-oriented synthesis” (ACS Med Chem Lett, 2011).

Structures are written as SMILES. Calls of active or inactive are those of the source. No cut-off for these calls is given here.

For orientation: EC50 means the midpoint of the concentration-response curve.

Test system in the first assay: not listed separately
Put plainly: Inhibition of IL-1beta, IFN-gamma and TNF-alpha-induced apoptosis of rat INS-1E cells assessed as restoring cell viability after 48 hrs by luciferase based CellTiter-Glo assay. In kind it is functional. For orientation: ATP-based viability assays read luminescence as a measure of living cells.
Regarding `CC(C)N1C[C@@H](C)[C@H](CN(C)S(=O)(=O)c2ccc3c(c2)OCCO3)Oc2c(NC(=O)Nc3cccc4ccccc34)cccc2C1=O`, the EC50 is 2.79 µM.
As to `COc1ccc(S(=O)(=O)N(C)C[C@@H]2Oc3c(NC(=O)Nc4cccc5ccccc45)cccc3C(=O)N(C(C)C)C[C@H]2C)cc1`, the EC50 worked out at 3.06 µM.
For `COc1cccc(S(=O)(=O)N(C)C[C@@H]2Oc3c(NC(=O)Nc4cccc5ccccc45)cccc3C(=O)N([C@@H](C)CO)C[C@H]2C)c1`, the EC50 was > 20 µM.
Consider `C[C@@H]1CN([C@@H](C)CO)C(=O)c2cccc(NC(=O)Nc3cccc4ccccc34)c2O[C@H]1CN(C)S(=O)(=O)c1ccc(Oc2ccccc2)cc1`, for which the EC50 was > 20 µM.
Regarding `C[C@@H]1CN([C@@H](C)CO)C(=O)c2cccc(NC(=O)Nc3cccc(Cl)c3Cl)c2O[C@H]1CN(C)S(=O)(=O)c1ccc2c(c1)OCCO2`, the EC50 is > 20 µM.
`COc1ccc(S(=O)(=O)N(C)C[C@@H]2Oc3c(NC(=O)Nc4cccc5ccccc45)cccc3C(=O)N([C@@H](C)CO)C[C@H]2C)cc1`: the half-maximal effective concentration (EC50) was found to be 4.89 µM.
Still for that read-out and setting: to `COc1ccc(S(=O)(=O)N(C)C[C@@H]2Oc3c(NC(=O)Nc4ccc5occc5c4)cccc3C(=O)N([C@@H](C)CO)C[C@H]2C)cc1` belongs > 20 µM.
On to `COc1ccc(S(=O)(=O)N(C)C[C@@H]2Oc3c(NC(=O)NC4CCCc5ccccc54)cccc3C(=O)N([C@@H](C)CO)C[C@H]2C)cc1` (stereo partly drawn), for which the concentration giving a half-maximal response (EC50) was > 20 µM.
In the case of `COc1ccc(S(=O)(=O)N(C)C[C@@H]2Oc3c(NC(=O)Nc4cccc5c4CCCC5)cccc3C(=O)N([C@@H](C)CO)C[C@H]2C)cc1`, the EC50 was > 20 µM.
The same measure, in the same setting: to `COc1ccc(S(=O)(=O)N(C)C[C@@H]2Oc3c(NC(=O)Nc4cccc5ccccc45)cccc3C(=O)N([C@@H](C)CO)C[C@H]2C)cc1C` belongs 3.5 µM.
Consider `COc1ccccc1S(=O)(=O)N(C)C[C@@H]1Oc2c(NC(=O)Nc3cccc4ccccc34)cccc2C(=O)N([C@@H](C)CO)C[C@H]1C`, for which the EC50 is > 20 µM.
Take `C[C@@H]1CN([C@@H](C)CO)C(=O)c2cccc(NC(=O)Nc3cccc4ccccc34)c2O[C@H]1CN(C)S(=O)(=O)c1ccc2c(c1)OCCO2`: the EC50 was 0.78 µM.

Test system in the next assay: not listed separately
Description: Inhibition of IL-1beta, IFN-gamma and TNF-alpha-induced apoptosis of rat INS-1E cells assessed as maximum activity to restoring cell viability after 48 hrs by luciferase based CellTiter-Glo assay. The format is functional.
Regarding `CC(C)N1C[C@@H](C)[C@H](CN(C)S(=O)(=O)c2ccc3c(c2)OCCO3)Oc2c(NC(=O)Nc3cccc4ccccc34)cccc2C1=O`, the Activity was 89%.
Consider `COc1ccc(S(=O)(=O)N(C)C[C@@H]2Oc3c(NC(=O)Nc4cccc5ccccc45)cccc3C(=O)N(C(C)C)C[C@H]2C)cc1`, for which the Activity amounted to 76%.
As for `COc1cccc(S(=O)(=O)N(C)C[C@@H]2Oc3c(NC(=O)Nc4cccc5ccccc45)cccc3C(=O)N([C@@H](C)CO)C[C@H]2C)c1`, the Activity was found to be 0%.
Still for that read-out and setting: to `C[C@@H]1CN([C@@H](C)CO)C(=O)c2cccc(NC(=O)Nc3cccc4ccccc34)c2O[C@H]1CN(C)S(=O)(=O)c1ccc(Oc2ccccc2)cc1` belongs 0%; to `C[C@@H]1CN([C@@H](C)CO)C(=O)c2cccc(NC(=O)Nc3cccc(Cl)c3Cl)c2O[C@H]1CN(C)S(=O)(=O)c1ccc2c(c1)OCCO2`, 0%.
With `COc1ccc(S(=O)(=O)N(C)C[C@@H]2Oc3c(NC(=O)Nc4cccc5ccccc45)cccc3C(=O)N([C@@H](C)CO)C[C@H]2C)cc1`, the Activity stood at 62%.
Regarding `COc1ccc(S(=O)(=O)N(C)C[C@@H]2Oc3c(NC(=O)Nc4ccc5occc5c4)cccc3C(=O)N([C@@H](C)CO)C[C@H]2C)cc1`, the Activity came out at 0%.
On the same count and under the same terms, as for `COc1ccc(S(=O)(=O)N(C)C[C@@H]2Oc3c(NC(=O)NC4CCCc5ccccc54)cccc3C(=O)N([C@@H](C)CO)C[C@H]2C)cc1` (stereo partly drawn), the figure is 0%.
Same read-out and setting: to `COc1ccc(S(=O)(=O)N(C)C[C@@H]2Oc3c(NC(=O)Nc4cccc5c4CCCC5)cccc3C(=O)N([C@@H](C)CO)C[C@H]2C)cc1` belongs 0%; to `COc1ccc(S(=O)(=O)N(C)C[C@@H]2Oc3c(NC(=O)Nc4cccc5ccccc45)cccc3C(=O)N([C@@H](C)CO)C[C@H]2C)cc1C`, 76%.
With `COc1ccccc1S(=O)(=O)N(C)C[C@@H]1Oc2c(NC(=O)Nc3cccc4ccccc34)cccc2C(=O)N([C@@H](C)CO)C[C@H]1C`, the Activity is listed as 0%.
For the compound `C[C@@H]1CN([C@@H](C)CO)C(=O)c2cccc(NC(=O)Nc3cccc4ccccc34)c2O[C@H]1CN(C)S(=O)(=O)c1ccc2c(c1)OCCO2`, the Activity turned out to be 99%.

The test system of the next assay is INS-1E. Description: Inhibition of IL-1beta, IFN-gamma and TNF-alpha-induced apoptosis of rat INS-1E cells assessed as decrease in caspase-3 activity after 48 hrs by luminescence assay. The format is functional, cell-based.
Consider `C[C@@H]1CN([C@@H](C)CO)C(=O)c2cccc(NC(=O)Nc3cccc4ccccc34)c2O[C@H]1CN(C)S(=O)(=O)c1ccc2c(c1)OCCO2`, for which the inhibition entry is “Dose-dependent effect”.

Another assay concerns INS-1E. Put plainly: Inhibition of IL-1beta, IFN-gamma and TNF-alpha-induced apoptosis of rat INS-1E cells assessed as decrease in nitrite production after 48 hrs by Griess assay. In kind it is functional, cell-based. On the technique in general: Nitrite, measured by Griess reagent, commonly stands in for NO production.
With `C[C@@H]1CN([C@@H](C)CO)C(=O)c2cccc(NC(=O)Nc3cccc4ccccc34)c2O[C@H]1CN(C)S(=O)(=O)c1ccc2c(c1)OCCO2`, the inhibition entry was “Dose-dependent effect”.

In the next assay the test system is INS-1E. Description: Inhibition of IL-1beta, IFN-gamma and TNF-alpha-induced apoptosis of rat INS-1E cells assessed as restoration of mitochondrial membrane potential at 0.25 to 5 uM after 48 hrs by JC-1 staining analysis. In kind it is functional, cell-based.
With `C[C@@H]1CN([C@@H](C)CO)C(=O)c2cccc(NC(=O)Nc3cccc4ccccc34)c2O[C@H]1CN(C)S(=O)(=O)c1ccc2c(c1)OCCO2`, the inhibition entry is “Active”.

The test system of another assay is INS-1E. Description: Inhibition of IL-1beta, IFN-gamma and TNF-alpha-induced apoptosis of rat INS-1E cells assessed as glucose-stimulated insulin secretion at 5 uM after 48 hrs by ELISA. The format is functional, cell-based.
Take `C[C@@H]1CN([C@@H](C)CO)C(=O)c2cccc(NC(=O)Nc3cccc4ccccc34)c2O[C@H]1CN(C)S(=O)(=O)c1ccc2c(c1)OCCO2`: the inhibition entry is “Active”.
